US20120322153A1, “REPROGRAMMING A CELL BY ACTIVATION OF THE ENDOGENOUS TRANSCRIPTION FACTOR NETWORK” (NUPOTENTIAL, INC., priority 2009, published 2012)
Read-outs that look alike come from different tables or passages of the source.

Key:
[1] = test system: HDAC; details: order of magnitude of affinity for HDAC; cited from earlier work
[2] = test system: Human adipose tissue derived adult stem cells; experiment: ES cell-like colony formation of hADS cells pre-treated with HDAC inhibitor, then OSKM lentivirus; format: cell-based
Experimental: Human adipose tissue derived adult stem cells were maintained at 37° C. in 95% humidity and 5% CO2 in Dulbecco's modified eagle medium (DMEM, Cell Application) containing 10% fetal bovine serum, 0.5% penicillin and streptomycin. Cells were grown, trypsinized and counted, then diluted in the above standard growth medium to achieve appropriate plating density (1×10^5 cells/well in 6 well plate, Corning) prior to HDAC inhibitor treatment.
Pre-treatment. […] The cell culture medium was changed every other day with new treatment.
Lentivirus infection. Lentivirus that over-expresses mouse Oct-4, Sox2, c-Myc, and Klf4 was purchased from Millipore, (Billerica, Mass.). One day before lentivirus infection, human adipose tissue-derived cells with or without HDAC inhibitor pretreatment were trypsinized and plated at a density of 1×10^5 cells/well in a 6 well plate (Corning) using standard growth medium described above. The following day, the medium was replaced with 1 ml of fresh medium containing 0.6 ug/ml of polybrene (Sigma-Aldrich, St. Louis, Mo.), and thawed lentivirus (MOI 75) was added directly to the wells following the manufacturer's instruction. Cells were maintained at 37° C. in 95% humidity and 5% CO2 incubator overnight. On the next day, lentiviral infection was repeated after cells were washed 3 times with 1×PBS. Lentivirus infected cells were maintained in the standard growth medium for 4˜5 days and trypsinized, and plated on irradiated MEF feeder layers (ATCC, Manassas, Va.) with mTeSR medium (Stem Cell Technology).

[3] = test system: Human adipose tissue derived adult stem cells; experiment: Immunohistochemistry for Sox-2 and Oct4 in ES cell-like colonies from hADS cells; format: cell-based; details: pre-treatment with TSA
Experimental: Cells were fixed with fixative (Ethanol:acetic acid:H2O=7:2:1) for 10 minutes. After rinse 3 times with 10% FBS in 1×PBS for 5 min each and cells were incubated I hrs with primary antibodies for Oct4 (1:200 dilution, Abeam), or Sox2 (1:200 dilution, Abeam) in 10% FBS containing 0.2% saponin (Sigma) and following alexaFluor-conjugated secondary antibody (1:200 dilution, Invitrogen).

[4] = test system: BJFs (ATCC); experiment: HDAC and DNMT1 gene expression in BJFs treated with VPA; format: cell-based
Experimental: FIG. 4C is a bar graph reporting HDAC and DNMT1 gene expression in BJFs (ATCC) treated with […] Valproic acid (VPA) for 7 days.
Expression levels for shRNA-targeted genes and pluripotency transcription factor were quantified by real-time RT-PCR. Briefly, total RNA was prepared from cultures using Trizol Reagent (Life Technology) and the RNeasy Mini RNA isolation kit (Qiagen) with DNase I digestion according to manufacturer's protocol. Total RNA (1 μg) from each sample was subjected to oligo(dT)-primed reverse transcription (Invitrogen) to cDNA. Real-time PCR reactions were performed with PCR master mix on a 7300 real-time PCR system (Applied Biosystems). For each sample, 1 μl of diluted cDNA (1:10) was added as template in the PCR reactions. Expression levels were compared to those in untreated and non-targeting shRNA control cells relative to cyclophillin.

[5] = test system: Human fibroblasts; details: Retroviral infection, cited from earlier work
[6] = test system: Mouse embryonic fibroblasts; details: Recombinant protein, cited from earlier work
[7] = test system: mouse embryos; details: mice, when properly dosed; cited from earlier work
[8] = used as antiepileptic drug during pregnancy; a few percent of born children; cited from earlier work
[9] = 5 days pre-treatment, 9 days after OSKM viral infection
[10] = 5 days pre-treatment, 11 days after OSKM viral infection

Row | Molecule | Affinity Range [1] | also measured
1 | O=C(CCCCCCCC(=O)NO)NO [ABHA (azeleic bishydroxamic acid), azeleic bishydroxamic acid] | uM | –
2 | CCCC(=O)OCOC(=O)C(C)(C)C [AN-9, Pivaloyloxymethyl butyrate, Pivaloyloxymethyl butyrate] | uM | –
3 | CCCC(=O)[O-].[Na+] [Butyrate/Sodium Butyrate, Sodium Butyrate] | mM | –
4 | CC(=O)Nc1ccc(C(=O)Nc2ccccc2N)cc1 [CI-994(N-acetyl dinaline), N-acetyl dinaline] | nM | –
5 | C=CCSSCC=C [Diallyl disulfide (DADS), Diallyl disulfide] | uM | –
6 | CCN(CC)Cc1ccc2cc(COC(=O)Nc3ccc(C(=O)NO)cc3)ccc2c1 [ITF2357] | nM | –
7 | Nc1ccccc1NC(=O)c1ccc(CNc2nccc(-c3cccnc3)n2)cc1 [MGCD0103] | nM | –
8 | Nc1ccccc1NC(=O)c1ccc(CNC(=O)OCc2cccnc2)cc1 [MS-275 (same as MS-27-275)] | nM | –
9 | O=C(/C=C/c1ccc(CN(CCO)CCc2c[nH]c3ccccc23)cc1)NO [NVP-LAQ824] | nM | –
10 | O=C(/C=C/c1cccc(S(=O)(=O)Nc2ccccc2)c1)NO [PDX-101] | uM | –
11 | S=C=NCCCCc1ccccc1 [Phenylbutyl isothiocyanate] | uM | –
12 | O=C(CCCCCCC(=O)Nc1cccnc1)NO [Pyroxamide] | uM | –
13 | O=C(CCCCCCC(=O)NO)NO [SBHA (suberic bishydroxamate), suberic bishydroxamate] | uM | –
14 | CC(=O)N[C@@H](CSC(=S)NCCCC[S+](C)[O-])C(=O)O (some centres unmarked) [SFN-N-acetylcysteine (SFN-NAC), SFN-N-acetylcysteine] | uM | –
15 | C[S+]([O-])CCCCNC(=S)SC[C@H](N)C(=O)O (some centres unmarked) [SFN-cysteine (SFN-Cys), SFN-cysteine] | uM | –
16 | CN(C)c1ccc(C(=O)NCc2ccc(/C=C/C(=O)NO)cc2)cc1 [SK-7041] | nM | –
17 | O=C(/C=C/c1ccc(CNC(=O)c2ccc(N3CCCC3)cc2)cc1)NO [SK-7068] | nM | –
18 | O=C(CCCCCN1C(=O)c2cccc3cccc(c23)C1=O)NO [Scriptaid] | – | ES cell-like colony formation [2, 9]: ES cell-like colony formation was observed; ES cell-like colony formation [2, 10]: multiple colonies displaying morphologies consistent with embryonic stem cells or reprogrammed cells were observed
19 | C[S+]([O-])CCCCN=C=S (centres unmarked) [Sulforaphane (SFN), Sulforaphane] | uM | –
20 | CC(/C=C/C(=O)NO)=C\[C@@H](C)C(=O)c1ccc(N(C)C)cc1 [TSA, Trichostatin A] | nM | ES cell-like colony formation [2, 9]: multiple colonies displaying morphologies consistent with embryonic stem cells or reprogrammed cells were observed; ES cell-like colony formation [2, 10]: ES cell-like colony formation was observed; Increase in colony formation vs no pretreatment ([2]; 5 days pre-treatment, then OSKM lentivirus): two-fold; Number of ES cell-like colonies ([2]; First Experiment): 24; Number of ES cell-like colonies ([2]; Second Experiment): 21; Somatic cell reprogramming efficiency (number of formed colonies) ([2]; pre-treatment prior to four-factor transfection, TSA 1 μM): increased; Sox-2 and Oct4 expression in ES cell-like colonies [3]: showed Sox-2 and Oct4 expression
21 | CCCC(CCC)C(=O)O [VPA, Valproic acid] | mM | DNMT1 gene expression ([4]; BJFs, 500 nM VPA, 7 days, vs control (MC) cells, P<0.005): significantly up regulated; HDAC1 gene expression ([4]; BJFs, 500 nM VPA, 7 days, vs control (MC) cells, P<0.01): significantly up regulated; SIRT4 gene expression ([4]; BJFs, 500 nM VPA, 7 days, vs control (MC) cells, P<0.05): significantly up regulated; Compensatory expression of HDACs (HDAC9, HDAC5, HDAC11, SIRT4, SIRT5) ([4]; treatment of cells with VPA (FIG. 4C)): induced; ES cell-like colony formation [2, 9]: Colonies displaying characteristics of embryonic stem cells or reprogrammed cells were observed; ES cell-like colony formation [2, 10]: Colonies displaying characteristics of embryonic stem cells or reprogrammed cells were observed; Efficiency ([5]; 2 iPS factors (OS) + VPA): 0.001%; Efficiency ([5]; 3 iPS factors (OSK) + VPA): 1%; Efficiency ([6]; 3 iPS factors (OSK) + VPA): 0.002%; Efficiency ([6]; 4 iPS factors (OSKM) + VPA): 0.006%; Teratogenicity [7]: teratogenic in the majority of mouse embryos; Birth defects (neural tube closure defects and other malformations) [8]: may induce birth defects
22 | O=C(/C=C/c1cccc(C(=O)NO)c1)NO [m-Carboxycinnamic acid bishydroxamic acid] | uM | –
23 | Oxamflatin | uM | –
24 | Suberoylanilide hydroxamic acid | uM | –
